The test system of the assay is platelet aggregation that is mediated by αIIbβ3. Put plainly: Inhibition of ADP-induced platelet aggregation in platelet-rich plasma. Particulars: PRP. The format is cell-based.

This note sets out measurements from patent publication US10870684B2, “Disintegrin variants and pharmaceutical uses thereof” (National Cheng Kung University, priority 2014, dated 2020).

By IC50 is commonly meant the point on the concentration scale where inhibition reaches its midpoint. A low value points to greater potency in that assay.

Method: Disintegrin (Rho) variants were also tested for their ability to inhibit platelet aggregation that is mediated by αIIbβ3. Venous blood (9 parts) samples from healthy donors who had not received any medication for at least two weeks were collected in 3.8% sodium citrate (1 part). Blood samples were centrifuged at 150×g for 10 min to obtain platelet-rich plasma (PRP) and allowed to stand for 5 min, and PRP was collected. The platelet-poor plasma (PPP) was prepared from the remaining blood by centrifuging at 2000×g for 25 min. The PPP platelet count was measured on a hematology analyzer and diluted to 250,000 platelets/μl. A solution of 190 μl of PRP and 10 μl of either Rho or PBS buffer were incubated for 5 min in a Hema Tracer 601 aggregometer at 37° C. Ten microliters of 200 μM adenosine diphosphate (ADP) were further added to monitor the response of platelet aggregation by light transmission.

In the case of “rhodostomin [Rho wild-type, reference compound]”, the half-inhibitory concentration (IC50) was found to be 83.2 nM.
